Test results reported in PubChem BioAssay (NCI).
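Results reflect a 48-hour exposure of cells in 96-well plates to compound at five concentrations. The concentration for full growth arrest is given as TGI.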

Experiments:
Experiment in all cases: NCI tumour cell line growth inhibition, 48 h
RXF 393 renal = test system: RXF 393 renal
NCI-H226 lung = test system: NCI-H226 lung
UO-31 renal = test system: UO-31 renal
A498 renal = test system: A498 renal
HL-60(TB) leukemia = test system: HL-60(TB) leukemia
SK-MEL-5 melanoma = test system: SK-MEL-5 melanoma
SF-539 CNS = test system: SF-539 CNS
UACC-62 melanoma = test system: UACC-62 melanoma
SR leukemia = test system: SR leukemia
COLO 205 colon = test system: COLO 205 colon
KM12 colon = test system: KM12 colon
OVCAR-5 ovarian = test system: OVCAR-5 ovarian
DU-145 prostate = test system: DU-145 prostate
MDA-MB-435 = test system: MDA-MB-435

SMILES | TGI (RXF 393 renal) [µM] | TGI (NCI-H226 lung) [µM] | TGI (UO-31 renal) [µM] | TGI (A498 renal) [µM] | TGI (HL-60(TB) leukemia) [µM] | TGI (SK-MEL-5 melanoma) [µM] | TGI (SF-539 CNS) [µM] | TGI (UACC-62 melanoma) [µM] | TGI (SR leukemia) [µM] | TGI (COLO 205 colon) [µM] | TGI (KM12 colon) [µM] | TGI (OVCAR-5 ovarian) [µM] | TGI (DU-145 prostate) [µM] | TGI (MDA-MB-435) [µM]
CC12CCC(=O)N1c1ccc([N+](=O)[O-])cc1N2 (stereo unspecified) | > 100 | > 100 | > 100 | > 100 | > 100 | > 100 | > 100 | > 100 | > 100 | > 100 | > 100 | – | – | –
CCCCC1(C)C=C/C(=C2/C(=O)O/C(=C\C(=O)O)C2=O)O1 (stereo unspecified) | – | > 100 | > 100 | > 100 | > 100 | > 100 | > 100 | > 100 | > 100 | > 100 | > 100 | > 100 | – | –
COc1c(=O)cc2cc[nH]c3ccn(C)c1c23 | > 100 | > 100 | > 100 | > 100 | – | – | – | > 100 | > 100 | > 100 | > 100 | > 100 | > 100 | > 100
Nc1c([N+](=O)[O-])nc(Cl)c2nncn12 | > 100 | > 100 | > 100 | > 100 | > 100 | > 100 | > 100 | > 100 | 41.9 | > 65 | > 100 | > 100 | – | –
CC1(c2ccccc2Cl)C(C#N)C(=O)NC(=O)C1C#N (stereo unspecified) | > 100 | 98 | > 100 | > 100 | 48.5 | 74.2 | > 100 | > 100 | – | > 100 | – | > 100 | – | –
CCOC(=O)C1(F)S(=O)(=O)OCCOS1(=O)=O | > 100 | > 100 | > 100 | – | – | > 100 | > 100 | > 100 | > 100 | > 100 | > 100 | > 100 | > 100 | > 100
[O-]c1c2cc(-[n+]3c(-c4ccccc4)cc(-c4ccccc4)cc3-c3ccccc3)cc1COCCOCCOCCOCCOC2 | – | > 100 | > 100 | – | > 100 | – | > 100 | 44.2 | 65.7 | 33.5 | 50 | > 100 | – | –
O=C(c1nc2ccccc2[nH]c1=O)C(O)c1ccccc1 (stereo unspecified) | – | > 100 | > 100 | 99.6 | > 100 | > 100 | > 100 | > 100 | > 100 | > 100 | > 100 | > 100 | – | –
CC(=O)OCCOCNC(=S)N/N=C/c1cc(Br)cs1 | > 100 | > 100 | > 100 | > 100 | > 100 | > 100 | > 100 | > 100 | > 100 | > 100 | > 100 | > 100 | – | –
CC1(C)CC(=O)C(/C(=N/NC(=S)NN)C(=O)Nc2nc3ccc([N+](=O)[O-])cc3s2)C(=O)C1 | > 100 | > 100 | > 100 | > 100 | > 100 | > 100 | > 100 | > 100 | > 100 | > 100 | > 100 | > 100 | – | –
COc1ccc(CCC2c3cc(OC)c(OC)cc3CCN2C)cc1OC (stereo unspecified) | > 100 | > 100 | > 100 | – | > 100 | > 100 | > 100 | > 100 | > 100 | > 100 | > 100 | > 100 | – | –
O=C(CCC1C(=O)NC(=S)NC1=O)c1ccc2ccccc2c1 | > 100 | > 100 | > 100 | > 100 | > 100 | > 100 | > 100 | > 100 | > 100 | > 100 | > 100 | > 100 | – | –
CCC1OC2C(CC=C(C)C)=C3OC(C)(O)C(C)(CC)C(OC(C)=O)C3=C3OC(=O)C=C1C32 (stereo unspecified) | – | – | 62.2 | > 100 | > 100 | 42.2 | 40.9 | 42.1 | > 100 | 70.9 | 50 | 57.9 | > 100 | 50.3
COC(=O)c1ccc2c(c1)S/C(=C/c1ccc3ccc4cccc5ccc1c3c45)S2 | > 100 | > 100 | > 100 | > 100 | 46.9 | > 100 | > 100 | 61 | – | > 100 | 57.3 | > 100 | > 100 | 74.3
CC1(C)CC[C@]2(C)CC[C@]3(C)C(=CC[C@@H]4[C@@]5(C)CCC(=O)C(C)(C)[C@@H]5[C@H](O)C[C@]43C)[C@@H]2C1 | 31.1 | – | – | 31 | > 100 | 31.5 | 32.1 | 29.4 | – | 32 | 37.9 | 30.7 | 34.4 | 39.7
C/C=C/C#CC#C/C=C/C=C/C(O)CCO (stereo unspecified) | > 23.1 | > 23.1 | > 23.1 | – | > 23.1 | > 23.1 | > 23.1 | > 23.1 | > 23.1 | > 23.1 | > 23.1 | > 23.1 | – | –
COC(=O)C(CCSC)NC(=O)CNC(=O)CSc1nnc(COc2ccc(Cl)cc2)n1-c1ccccc1 (stereo unspecified) | 35.9 | 36.9 | 22.1 | 95.7 | 38.3 | 31.4 | 35 | 30.3 | – | 33.6 | 44.6 | 34.7 | 55.8 | 37.9
O=C(c1cccs1)N(C(=S)OCCOc1ccccc1)c1ccccc1 | 51.9 | – | – | 50.5 | 48 | – | 58 | 37.7 | – | 42.4 | 81 | 70.2 | > 100 | 33.7
COC(=O)c1ccc(S)c(S(=O)(=O)Nc2n[nH]c(N)n2)c1 | – | – | > 100 | > 100 | > 100 | > 100 | > 100 | > 100 | > 100 | > 100 | > 100 | > 100 | > 100 | > 100
